# ± gives the standard deviation of the averaged measurements.
# Columns and labels:
# Assay in all cases: level (log10 ratio to DMSO vehicle control); higher = higher biomarker level / cell amount than vehicle control
# Conditions in all cases: in DMSO
# [1] = compound: O=C(O)C(F)(F)C(F)(F)C(F)(F)C(F)(F)C(F)(F)C(F)(F)C(F)(F)C(F)(F)C(F)(F)C(F)(F)C(F)(F)C(F)(F)C(F)(F)F [Perfluorotetradecanoic acid]
# Protocol: (§1)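 BioMAP Diversity Plus panel of 12 human primary cell co-culture systems (3C, 4H, LPS, SAg, BT, BF4T, BE3C, CASM3C, HDF3CGF, KF3CT, MyoF, Mphg). Compounds were added 1 h before stimulation and left for 24 h (MyoF 48 h; BT 72 h for soluble read-outs or 6 d for IgG). Biomarkers were read by ELISA, cytotoxicity by SRB, PBMC viability and proliferation by Alamar Blue. Each well value was divided by the mean of 8 DMSO control wells on the same plate and log10 transformed; duplicate blinded samples were tested at 4 concentrations.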
# [2] = compound: O=S(=O)(O)C(F)(F)C(F)(F)C(F)(F)C(F)(F)C(F)(F)C(F)(F)C(F)(F)C(F)(F)F [Potassium perfluorooctanesulfonate]
# Protocol: as §1
# [3] = compound: O=C(O)C(F)(F)OC(F)(F)C(F)(F)OC(F)(F)C(F)(F)C(F)(F)C(F)(F)F [Perfluoro-3,6-dioxadecanoic acid]
# Protocol: as §1
# [4] = compound: CCCCCCCCC(F)(F)C(F)(F)C(F)(F)C(F)(F)C(F)(F)C(F)(F)F [1-(Perfluorohexyl)octane]
# Protocol: as §1
# [5] = compound: O=C(O)C(F)(F)C(F)(F)C(F)(F)C(=O)O [Hexafluoroglutaric acid]
# Protocol: as §1
# [6] = compound: O=C(O)C(F)(F)C(F)(F)C(F)(F)C(F)(F)C(F)(F)C(F)(F)C(F)(F)C(F)(F)C(F)(F)C(F)(F)C(F)(F)C(F)(F)F [Perfluorotridecanoic acid]
# Protocol: as §1
# [7] = compound: O=C(O)C(F)(F)C(F)(F)C(F)(F)C(F)(F)C(F)(F)C(F)(F)C(F)(F)C(F)(F)Cl [9-Chloro-perfluorononanoic acid]
# Protocol: as §1
Test System,level (log10) ([1]; 6700 nM),level (log10) ([1]; 20000 nM),level (log10) ([2]; 6700 nM),level (log10) ([2]; 20000 nM),level (log10) ([2]; 60000 nM),level (log10) ([3]; 6700 nM),level (log10) ([3]; 20000 nM),level (log10) ([3]; 60000 nM),level (log10) ([4]; 6700 nM),level (log10) ([4]; 20000 nM),level (log10) ([5]; 6700 nM),level (log10) ([5]; 20000 nM),level (log10) ([5]; 60000 nM),level (log10) ([6]; 1500 nM),level (log10) ([6]; 4400 nM),level (log10) ([6]; 13000 nM),level (log10) ([6]; 40000 nM),level (log10) ([7]; 6700 nM),level (log10) ([7]; 20000 nM)
MyoF:CXCL8/IL-8,0.0095 ± 0.0078,0.017 ± 0.0071,-0.006 ± 0.023,-0.0455 ± 0.023,-0.0385 ± 0.0035,0.011 ± 0.011,0.0335 ± 0.013,0.0145 ± 0.0021,0.0015 ± 0.029,0.028 ± 0.011,-0.0085 ± 0.0021,-0.0225 ± 0.013,-0.0015 ± 0.021,-0.01 ± 0.023,-0.0295 ± 0.0078,-0.0275 ± 0.0021,-0.025 ± 0.0042,0.0025 ± 0.015,-0.06 ± 0.0057
lMphg:CD69,-0.02 ± 0.038,-0.007 ± 0.089,-0.04 ± 0.0028,-0.052 ± 0.02,-0.074 ± 0.04,-0.0505 ± 0.021,-0.0425 ± 0.0021,-0.196 ± 0.063,-0.0265 ± 0.0078,-0.0345 ± 0.015,-0.037 ± 0.028,-0.0325 ± 0.0021,-0.0525 ± 0.015,-0.0045 ± 0.019,-0.0685 ± 0.018,-0.066 ± 0.04,-0.0555 ± 0.013,-0.049 ± 0.024,-0.053 ± 0.016
BE3C:MMP-1,0.015 ± 0.025,0.0505 ± 0.059,0.182 ± 0.038,0.157 ± 0.021,0.198 ± 0.012,0.067 ± 0.0014,0.172 ± 0.0035,0.355 ± 0.021,0.0155 ± 0.018,0.0395 ± 0.053,-0.011 ± 0.0099,-0.023 ± 0.016,0.007 ± 0.058,-0.014 ± 0.035,0.0385 ± 0.05,0.0445 ± 0.043,0.0615 ± 0.028,0.083 ± 0.024,0.277 ± 0.0064
lMphg:CD40,-0.0405 ± 0.036,-0.031 ± 0.014,-0.0245 ± 0.0035,-0.0125 ± 0.0092,0.002 ± 0.017,0.002 ± 0.047,-0.0175 ± 0.035,-0.102 ± 0.023,-0.0185 ± 0.011,-0.023 ± 0.021,-0.0015 ± 0.012,-0.013 ± 0.0014,-0.066 ± 0.061,-0.0245 ± 0.021,-0.0355 ± 0.0064,-0.051 ± 0.0071,-0.2 ± 0.057,-0.0165 ± 0.0064,-0.0155 ± 0.005
BE3C:Keratin 8/18,-0.004 ± 0.03,-0.011 ± 0.045,0.0225 ± 0.00071,0.013 ± 0.0085,-0.0155 ± 0.019,-0.0075 ± 0.013,-0.0135 ± 0.026,0.027 ± 0.0042,0.011 ± 0.0071,0.004 ± 0.054,-0.006 ± 0.0085,-0.018 ± 0.0014,-0.003 ± 0.0042,0.0095 ± 0.0078,0.016 ± 0.0042,-0.0035 ± 0.0021,0.005 ± 0.0014,-0.0025 ± 0.015,0.0095 ± 0.0092
CASM3C:M-CSF,0.006 ± 0.025,-0.0065 ± 0.043,0.003 ± 0.028,0.016 ± 0.016,-0.007 ± 0.064,-0.0055 ± 0.035,-0.024 ± 0.0057,0.0115 ± 0.073,-0.0095 ± 0.013,0.0125 ± 0.036,-0.0135 ± 0.022,-0.0185 ± 0.033,0.018 ± 0.018,0.0075 ± 0.054,0.0255 ± 0.005,0.0565 ± 0.039,0.095 ± 0.0085,-0.0235 ± 0.0035,-0.0315 ± 0.011
HDF3CGF:EGFR,-0.0725 ± 0.036,0.029 ± 0.081,-0.0055 ± 0.019,-0.0305 ± 0.012,-0.0905 ± 0.029,-0.0005 ± 0.0064,-0.0815 ± 0.026,-0.135 ± 0.016,-0.007 ± 0.0028,0.0125 ± 0.005,-0.021 ± 0.061,-0.0285 ± 0.056,-0.021 ± 0.072,0.0025 ± 0.077,-0.052 ± 0.025,-0.0595 ± 0.03,-0.0175 ± 0.046,-0.135 ± 0.099,-0.2 ± 0.054
3C:CD142/Tissue Factor,0.0275 ± 0.0078,0.0665 ± 0.018,-0.018 ± 0.024,-0.0065 ± 0.04,0.049 ± 0.02,-0.0245 ± 0.059,0.0095 ± 0.015,-0.074 ± 0.024,-0.0025 ± 0.0078,0.0215 ± 0.023,-0.006 ± 0.02,-0.004 ± 0.028,-0.0685 ± 0.005,0.034 ± 0.023,0.024 ± 0.042,0.0425 ± 0.025,0.0615 ± 0.00071,-0.008 ± 0.057,0.025 ± 0.0057
lMphg:SRB-Mphg,0.0035 ± 0.011,0.006 ± 0.031,0.0005 ± 0.005,0.0005 ± 0.011,0.0115 ± 0.005,0.012 ± 0.016,0.014 ± 0.024,-0.0125 ± 0.03,-0.007 ± 0.013,0.0305 ± 0.019,-0.0075 ± 0.019,-0.0055 ± 0.005,0.0075 ± 0.022,0.003 ± 0.023,0.004 ± 0.0071,-0.0155 ± 0.022,0.0125 ± 0.019,0.01 ± 0.0042,0.0055 ± 0.018
KF3CT:SRB,-0.0005 ± 0.0035,0.0025 ± 0.0078,-0.0075 ± 0.0078,-0.011 ± 0.0014,-0.006 ± 0.0057,-0.0175 ± 0.011,-0.022 ± 0.013,-0.013 ± 0.031,-0.0025 ± 0.023,-0.0115 ± 0.015,-0.0055 ± 0.0021,-0.011 ± 0.0057,0.003 ± 0.018,0.0015 ± 0.00071,-0.0055 ± 0.0021,-0.0095 ± 0.0021,-0.035 ± 0.0042,-0.0135 ± 0.0035,-0.0145 ± 0.012
CASM3C:CCL2/MCP-1,-0.0615 ± 0.036,-0.03 ± 0.021,0.001 ± 0.024,0.01 ± 0.0057,0.0405 ± 0.021,-0.012 ± 0.0085,-0.0175 ± 0.013,0.043 ± 0.069,-0.0065 ± 0.018,0.001 ± 0.0042,-0.0115 ± 0.033,-0.024 ± 0.025,0.0205 ± 0.039,-0.0135 ± 0.0021,-0.043 ± 0.033,-0.04 ± 0.033,0.0315 ± 0.033,-0.0085 ± 0.011,-0.011 ± 0.0028
3C:CD54/ICAM-1,-0.0005 ± 0.0078,-0.0045 ± 0.013,-0.001 ± 0.0071,0.0235 ± 0.005,0.046 ± 0.0071,-0.003 ± 0.028,-0.0025 ± 0.018,0.019 ± 0.011,0.0025 ± 0.013,0.0165 ± 0.005,-0.0125 ± 0.018,-0.0165 ± 0.019,-0.0175 ± 0.018,0.001 ± 0.016,-0.0125 ± 0.019,-0.0155 ± 0.025,-0.0105 ± 0.0078,-0.0075 ± 0.0092,-0.0085 ± 0.019
HDF3CGF:CXCL11/I-TAC,0.0165 ± 0.015,-0.0705 ± 0.08,0.0005 ± 0.019,-0.0375 ± 0.015,-0.135 ± 0.0028,-0.0355 ± 0.023,-0.0895 ± 0.028,-0.168 ± 0.024,-0.0255 ± 0.023,-0.0365 ± 0.057,0.014 ± 0.0014,-0.011 ± 0.072,-0.0115 ± 0.061,-0.072 ± 0.014,-0.074 ± 0.055,-0.0805 ± 0.077,-0.18 ± 0.034,-0.105 ± 0.029,-0.217 ± 0.069
KF3CT:uPA,-0.014 ± 0.038,0.0115 ± 0.032,-0.011 ± 0.0099,-0.004 ± 0.011,-0.027,-0.0095 ± 0.0064,-0.0065 ± 0.03,0.0095 ± 0.005,0.01 ± 0.024,-0.0055 ± 0.029,-0.019 ± 0.024,-0.0055 ± 0.0035,-0.011 ± 0.011,0.0005 ± 0.018,-0.003 ± 0.011,0.0035 ± 0.015,-0.0035 ± 0.011,0.0095 ± 0.0078,0.01
HDF3CGF:PAI-I,0.0475 ± 0.023,0.0405 ± 0.021,0.0485 ± 0.0064,0.011 ± 0.021,-0.181 ± 0.18,0.0225 ± 0.013,0.0375 ± 0.0021,0.045 ± 0.024,0.0005 ± 0.016,0.0165 ± 0.0021,-0.0115 ± 0.016,-0.007 ± 0.014,0.0075 ± 0.021,0.063,0.0515 ± 0.023,0.0505 ± 0.0064,-0.022 ± 0.027,0.0685 ± 0.033,0.0245 ± 0.015

# — the supplement of paper PMC10331698
